Experimental data taken from patent US20240293551A1, “USE OF ST-TYPE LIPID COMPOUNDS IN PREPARATION OF NUCLEIC ACID DELIVERY REAGENT AND RELATED PRODUCT” (INSTITUTE OF BASIC MEDICAL SCIENCES CHINESE ACADEMY OF …, priority 2021, published 2024).

Test system: PGY-sRNA-26
Experiment: In vivo delivery study of lipid-nucleic acid mixture (oral gavage, RT-qPCR of PGY-sRNA-26 in tissues)
Set-up: species or system mouse
Conditions: for oral delivery of single-stranded sRNA nucleic acids into mouse intestinal tissue: intestine; for delivery efficacy over each tissue and blood tested (broad-spectrum delivery): all tissues and blood tested
Method: 10 nmol of small RNA (as shown in Table 2) was dissolved in 400 μl of DEPC-treated water in a glass tube, 10 μl of the corresponding lipid stock solution was added such that the lipid mass in the system was 100 μg. The mixture was mixed thoroughly, heated in a 90° C. water bath for 15 minutes, and then cooled naturally to obtain the lipid nucleic acid mixture of lipid and small RNA.
C57BL/6 male mice, approximately 6 weeks old, weighing 20-24 g, were obtained from Beijing Vital River Laboratory Animal Technology Co., Ltd. The mice were housed in the SPF-grade animal facility at the Animal Center of the Institute of Basic Medical Sciences, Chinese Academy of Medical Sciences. The mice were fasted for 12 hours before gavage administration.
The resultant lipid nucleic acid mixture was orally administered to each mouse at a dose of 100 μg lipid: 10 nmol single-stranded 3′-methylated small RNA PGY-sRNA-26.
• 1) Blank group (n=4): mice were administered with 500 μl saline by gavage, this group served as a blank control; • 2) Free uptake group (n=4): mice were directly administered with small RNA PGY-sRNA-26 solution (10 nmol/mouse, 500 μl) by gavage, this group served as a negative control; • 3) Lipid-treated group (n=4): mice were administered with 500 μl lipid nucleic acid mixture prepared in step 2 by gavage.
After 12 hours of gavage administration, 500 μl blood from the eyeball of each mouse was sampled, added to 1.5 ml Trizol Reagent LS (purchased from Invitrogen), thoroughly mixed for lysis. 3 ml of Trizol Reagent LSwas added to tissue samples and homogenized for complete lysis, wherein the sampled tissues include heart, liver, spleen, lung, kidney, stomach, intestine, brain, blood, femur. RNA was extracted from 1 ml of the blood or the tissue lysate following the steps below: • Centrifuge at 4° C., 12,000 rpm for 5 min, discard the precipitate, transfer Trizol to a new centrifuge tube; • Add chloroform at 200 μL chloroform/mL Trizol, shake well, stand at room temperature for 5 min; • Centrifuge at 4° C., 12,000 rpm for 15 min; • Take the upper aqueous phase to another centrifuge tube, add isopropanol at 0.4 mL isopropanol/mL Trizol, mix well, and stand at low temperature for 10-20 min; • Centrifuge at 4° C., 12,000 rpm for 15 min, discard the supernatant, RNA precipitated at the bottom of the tube; • Add 1 mL of 75% ethanol, gently shake the centrifuge tube, suspend the precipitate; • Centrifuge at 4° C., 12,000 rpm for 15 min, discard the supernatant, add 1 mL of 75% ethanol, gently shake the centrifuge tube, suspend the precipitate; • Centrifuge at 4° C., 12,000 rpm for 15 min, discard the supernatant, air-dry at room temperature, dissolve RNA samples in 50 μL RNase-free H2O, measure OD value to quantify RNA concentration. 3.3 Reverse Transcription of sRNA to cDNA:
The reverse transcription system is as follows: Template RNA (200 ng/μL) 10 μL, 10×RT Buffer 2.0 μL, 25×dNTP Mix (100 mM) 0.8 μL, U6 RT stem-loop primer (10 μM) 2.0 μL, PGY-sRNA-26 RT stem-loop primer (10 μM) 2.0 μL, MultiScribe™ Reverse Transcriptase (50 U/μL) 1.0 μL, RNAse Inhibitor (40 U/μL) 1.0 μL, nuclease-free H2O 1.2 μL. After transient centrifugation, the reverse transcription system was placed in a PCR machine with the following reaction conditions: (1) 25° C., 10 min; (2) 37° C., 120 min; (3) 85° C., 5 min; (4) 4° C., stop reaction. After the reaction, add 20 μL RNAse-free ddH2O, adjust the final volume to 40 μL. The stem-loop primers used in this reverse transcription process were synthesized by Beijing Tianyi Huiyuan Biotechnology Co., Ltd. (U6 was used as a standard reference gene to calculate its relative expression, because U6 RT primer was used as a reference gene in relative quantification of RT-qPCR reactions for small RNA): […]

[1] = C57BL/6 mice, gavage, 100 μg lipid: 10 nmol PGY-sRNA-26, 12 hours, blood
[2] = C57BL/6 mice, gavage, 100 μg lipid: 10 nmol PGY-sRNA-26, 12 hours
[3] = C57BL/6 mice, gavage, 100 μg lipid: 10 nmol PGY-sRNA-26, 12 hours, femur

| Structure (SMILES) | oral delivery of single-stranded sRNA nucleic acids into mouse blood [1] | oral delivery of single-stranded sRNA nucleic acids into mouse brain tissue [2] | oral delivery of single-stranded sRNA nucleic acids into mouse femur [3] | oral delivery of single-stranded sRNA nucleic acids into mouse heart tissue [2] | oral delivery of single-stranded sRNA nucleic acids into mouse intestinal tissue [2] | oral delivery of single-stranded sRNA nucleic acids into mouse liver tissue [2] | oral delivery of single-stranded sRNA nucleic acids into mouse lung tissue [2] | oral delivery of single-stranded sRNA nucleic acids into mouse spleen tissue [2] | oral delivery of single-stranded sRNA nucleic acids into mouse stomach tissue [2] | delivery efficacy over each tissue and blood tested (broad-spectrum delivery) [2] | oral delivery of single-stranded sRNA nucleic acids into mouse kidney tissue [2] | oral delivery of single-stranded sRNA nucleic acids into mouse blood (mouse, in vivo, po) | oral delivery of single-stranded sRNA nucleic acids into mouse femur (mouse, in vivo, po) |
| --- | --- | --- | --- | --- | --- | --- | --- | --- | --- | --- | --- | --- | --- |
| CCCCCCCCCCCCCCCCCC(=O)O[C@H]1CC[C@@]2(C)C(=CC[C@H]3[C@@H]4CC[C@H]([C@H](C)CCCC(C)C)[C@@]4(C)CC[C@@H]32)C1 [Lipid 584] | can effectively orally deliver | can effectively orally deliver | can effectively orally deliver | can effectively orally deliver | can effectively orally deliver | can effectively orally deliver | can effectively orally deliver | can effectively orally deliver | can effectively orally deliver |  |  |  |  |
| C[C@]12CC[C@H]3[C@@H](CCC4=CC(=O)CC[C@@]43CO)[C@@H]1CCC2=O [Lipid 567, 19-hydroxy-androstane-4-ene-3,17-dione (8R,9S,10S,13S,14S)-10-(hydroxymethyl)-13-methyl-2,6,7,8,9,11,12,14,15,16-decahydro-1H-cyclopenta[a]phenanthrene-3,17-dione] | can effectively orally deliver | can effectively orally deliver | can effectively orally deliver | can effectively orally deliver | can effectively orally deliver | can effectively orally deliver | can effectively orally deliver | can effectively orally deliver | can effectively orally deliver | exhibited the best delivery efficacy | can effectively orally deliver |  |  |
| C[C@]12CCC(=O)C=C1CC[C@@H]1[C@@H]2CC[C@@]2(C)[C@H]1CC[C@]2(O)C(=O)CO [Lipid 549] | can effectively orally deliver | can effectively orally deliver | can effectively orally deliver | can effectively orally deliver | can effectively orally deliver | can effectively orally deliver | can effectively orally deliver | can effectively orally deliver | can effectively orally deliver | exhibited the best delivery efficacy | can effectively orally deliver |  |  |
| C[C@H](CCC(=O)O)[C@H]1CC[C@H]2[C@@H]3[C@@H](O)C[C@@H]4C[C@H](O)CC[C@]4(C)[C@H]3CC[C@]12C [Lipid 592] | can effectively orally deliver | can effectively orally deliver | can effectively orally deliver | can effectively orally deliver | can effectively orally deliver | can effectively orally deliver | can effectively orally deliver | can effectively orally deliver | can effectively orally deliver | exhibited the best delivery efficacy | can effectively orally deliver |  |  |
| CCCCCCCCCCCCCCCCC(=O)O[C@H]1CC[C@@]2(C)C(=CC[C@H]3[C@@H]4CC[C@H]([C@H](C)CCCC(C)C)[C@@]4(C)CC[C@@H]32)C1 [Lipid 565] | can effectively orally deliver | can effectively orally deliver | can effectively orally deliver | can effectively orally deliver | can effectively orally deliver | can effectively orally deliver |  |  | can effectively orally deliver |  | can effectively orally deliver |  |  |
| C[C@]12CC[C@H]3[C@@H](CCC4=CC(=O)CC[C@@]43C)[C@@H]1CC[C@@H]2O [Lipid 579] |  |  |  |  |  |  |  |  |  |  |  | can effectively orally deliver | can effectively orally deliver |
| C[C@]1(O)CC[C@H]2[C@@H]3CCC4=CC(=O)CC[C@]4(C)[C@@]3(F)[C@@H](O)C[C@@]21C [Lipid 532] | can effectively orally deliver |  | can effectively orally deliver | can effectively orally deliver | can effectively orally deliver | can effectively orally deliver | can effectively orally deliver | can effectively orally deliver | can effectively orally deliver | exhibited the best delivery efficacy | can effectively orally deliver |  |  |
